According to patent publication US9642922B2, “Caspase-triggered nano-aggregation probes and methods of use” (The Board of Trustees of the Leland Stanford Junior …, priority 2013, dated 2017):
Numbered stars: 1 amine (or outer) side, 2 acyl side, 3 side chain; on linkers, the order of the positions; unused ones are H or OH. Square brackets hold non-standard residues; d marks the D form. Peptide text beside a SMILES is read from it. * marks the point of attachment. DOTA = O=C(O)CN1CCN(CC(=O)O)CCN(CC(=O)*)CCN(CC(=O)O)CC1; X1 = O=C(C1CSC(c2nc3ccc(N[*:1])cc3s2)=N1)[*:2]; X2 = N#Cc1ccc2cc(OCCCN*)ccc2n1; SEt = CCS*

How the values were obtained:
[1] = tested on: apoptotic cells; experiment: Two-photon laser confocal microscopy of europium analogue in HeLa cells; assay type: cell-based, human; details: same conditions as probe 15 uptake
[2] = tested on: caspase-3 level; experiment: Caspase-3 level in DOX-treated HeLa tumors; assay type: in vivo, mouse; details: 0.2 mg DOX intratumoral, 4 days
Description: Mice were injected subcutaneously on the right shoulder with an estimated 1-2 million HeLa cells. The HeLa cells were allowed to establish a tumor xenograft and to grow to the size of 1 cm in diameter. A subset of the mice was treated with intratumoral injections of 0.2 mg (in 20 μL) doxorubicin. Four days later, the animals were killed, the tumors removed and quickly frozen using dry ice. The following day, tumors were cut into small pieces, weighted and 1 mL/g Riba buffer was added. They were kept on ice for 30 min and then homogenized with a sonicator (Bronson Sonifier 150). The lysed tumor solutions were centrifuged at 11,750×g for 15 min at 4° C. The supernatant was analyzed for caspase-3 activity using the CASPASE-GLO® kit (Promega) and for protein concentration using the standard BSA absorption assay.

[3] = tested on: HeLa tumor xenograft; experiment: Tumor size monitoring in HeLa xenograft chemotherapy model; assay type: in vivo, mouse; details: 3×DOX 8 mg/kg i.v.
Description: (§1) To establish tumors in 6-week-old female nu/nu mice, 2×10^6 HeLa cells suspended in 50 μL of a 50% v/v mixture of Matrigel in supplemented DMEM (10% FBS, 1% penstrep) were injected subcutaneously in the shoulders of the mouse. Tumors were grown until a single aspect was 0.7 to 0.9 cm (approximately 10-15 days), and then treatment consisting of 8 mg/kg DOX or saline was initiated. Treatments were administered intravenously once every 4 d for a total of three times. Total mouse body weight and tumor size (width and length by caliper) was measured every other day. Tumor volumes were calculated assuming ellipsoid shape with the formula (l×w^2)/2.

[4] = tested on: caspase-3 activity; experiment: Caspase-3 level in Dox-treated HeLa cells; assay type: cell-based, human; details: Dox 2 μM, 24 h
Description: HeLa cells were incubated with different concentrations of doxorubicin (0, 1, 2 and 5 μM) and the cell/Tryp-LE solution was centrifuge at 11,750×g for 5 min, the supernatant was removed and 1 mL/g Riba buffer (Sigma) was added. The cells were left for 15 min on ice and homogenized with a sonicator (Bronson Sonifier 150) and the suspension was analyzed for Caspase-3 activity with a CASPASE-GLO® kit from Promega.
PET tracer 1 was applied to detect caspase-3 in apoptotic cells in vitro. HeLa cells were incubated with doxorubicin (Dox) (2 μM) for 24 h to induce apoptosis. […] Both Dox-treated and non-treated cells were then incubated with 1 for 4 h.

[5] = tested on: caspase-3/7 activity; experiment: CASPASE-GLO 3/7 assay in saline- and 3×DOX-treated tumor lysates; assay type: in vivo, mouse; details: 3×DOX 8 mg/kg i.v.
Description: HeLa tumor xenografted mice were treated with saline or 3×DOX (8 mg/Kg). After treatment, the mice were sacrificed, and the tumors were resected and lysed with RIPA buffer (1 g tissue/1 ml buffer). The solution was homogenized for 1 min on ice, three times. The lysed solution was kept on ice for another 30 min, and centrifuged at 14,000×g for 30 min at 4° C. The supernatant was collected, and the protein concentration was measured using Bradford assay with BSA as standard. The caspase-3/7 activity in the lysed solution was measured by CASPASE-GLO® 3/7 assay, and normalized to the protein concentration.

[6] = mouse, in vivo, iv
[7] = tested on: subcutaneous HeLa tumors; experiment: In vivo fluorescence imaging of DOX-treated HeLa tumor-bearing mice; parameters: species or system mouse
Description: C-SNAF or either of the control probes (5 nmol) was administered intravenously to tumor-bearing mice and whole animal fluorescence was longitudinally monitored using a Maestro fluorescence imager.
as §1
Two days following the final treatment, 5 nmol probe in saline was injected intravenously and fluorescence imaging began immediately on a Maestro hyperspectral fluorescent imaging system (PerkinElmer, Mass., USA) using a 635±25 nm excitation filter and a 675 nm long-pass emission filter, with images acquired from 670 to 900 nm. Tissue autofluorescence and Cy5.5 fluorescence were deconvolved, and tumor fluorescence intensity was quantified by region of interest measurement using Nuance v.3.0.1.2 software (Perkin Elmer, Mass., USA).

[8] = tested on: STS-induced apoptotic HeLa cells; experiment: Flow cytometry of STS-induced apoptotic HeLa cells labeled with probes; assay type: cell-based, human; details: 2 μM probe, compared with C-SNAF
Description: Approximately 10^5 HeLa cells in 1 mL DMEM medium were seeded onto 12-well plates. […] For the inhibitor blocking experiment, the STS-treated cells were first incubated with the caspase inhibitor Z-VAD-fmk (50 μM, R&D Systems) for 30 min, and then 2 μM C-SNAF was added. All cells incubations were 24 h, followed by staining with FLICA (FAM) after trypsinization. After washing with PBS (1×) three times, the cell pellets were resuspended in 300 μL PBS and applied for flow cytometry analysis using the FITC and Cy5.5 channels. The cell number for each flow cytometry analysis was approximately 5000 to 10000, and the data was processed using FlowJo software.

[9] = target: T1, caspase-3 (Homo sapiens, UniProt P42574); experiment: HPLC assay of caspase-3-triggered macrocyclization of C-SNAF; assay type: biochemical; parameters: purchased Sigma; host or cells: E. coli; details: same conditions as C-SNAF; D-ctrl after 24 h
T1 sequence (P42574 29-175 limits assumed): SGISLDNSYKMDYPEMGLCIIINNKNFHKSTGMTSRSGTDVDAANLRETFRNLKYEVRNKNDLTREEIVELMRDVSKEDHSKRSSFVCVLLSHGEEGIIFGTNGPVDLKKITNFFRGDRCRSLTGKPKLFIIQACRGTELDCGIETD
T1 sequence (P42574 176-277 limits assumed): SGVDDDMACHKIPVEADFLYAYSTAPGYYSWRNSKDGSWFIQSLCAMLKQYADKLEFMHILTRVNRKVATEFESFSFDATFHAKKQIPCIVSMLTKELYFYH
Description: The progression of caspase-3-triggered macrocyclization of C-SNAF to form C-SNAF-cycl in solution was monitored using high-performance liquid chromatography (HPLC) following incubation of the probe (25 μM) with recombinant human caspase-3 (4.9×10^−[…]).
Caspase (human, recombinant from E. coli) assays were performed for caspase-3 (4.9×10^−3 U; 7.35×10^−4 mg, Sigma), −7 (18.3 U; 7.35×10^−4 mg, Calbiochem), and −9 (0.3 U; 7.35×10^−4 mg, Calbiochem). All caspase assays were conducted in caspase buffer with 50 mM HEPES, 100 mM NaCl, 1 mM EDTA, 10 mM TCEP, 10% glycerol, and 0.1% CHAPS at pH 7.4. Cathepsin B (human liver; 0.27 U; 7.35×10^−4 mg, Calbiochem) and Legumain (human, recombinant from mouse myeloma cell line; >250 pmol/min/μg; 7.35×10^−4 mg, R&D Systems) were conducted in reaction buffer with 50 mM sodium acetate, 50 mM NaCl, 0.5 mM EDTA and 10 mM TCEP at pH 5.5. C-SNAF was diluted in the respective enzyme reaction buffer (25 μM, 1 mL) and remained at room temperature for 10 min, to which was then added the respective enzymes. Reactions were performed at 37° C., and monitored by HPLC hourly. The percentage conversion of the reaction was calculated based on the percentage of peak area of C-SNAF-cycl in the HPLC trace at 675 nm UV detection, which indicated the efficacy of enzyme cleavage of C-SNAF.

[10] = tested on: apoptotic HeLa cells; experiment: Epifluorescence microscopy of apoptotic HeLa cells labeled with probes; assay type: cell-based, human; details: microscopy, 2 μM probe
Description: After removal of the medium, the cells were incubated with C-SNAF, L-ctrl, or D-ctrl at 2 μM for 24 h. Some cells were first incubated with caspase inhibitor (Z-VAD-fmk, 50 μM) for 30 min, followed by incubating with 2 μM C-SNAF for 24 h. The cells were carefully washed with PBS (1×) three times, and stained with Hoechst 33342 (2 μM) at 37° C. for 30 min. After rinses with PBS (1×) several times, the medium was replaced and the fluorescence images were acquired with DAPI and Cy5.5 filters. The images were processed using the standard CRi Nuance software, analyzed using Image J software package (NIH), and presented at the same intensity scale for comparison.
HeLa cells in #1.5 borosilicate 8-well chambered coverslips (Nunc) were either incubated with C-SNAF (2 μM) alone or co-incubated with DOX (1, 2, and 5 μM) and 2 μM C-SNAF, 2 μM C-SNAF together with caspase inhibitor (Z-VAD-fmk, 50 μM), or control probes D-ctrl and L-ctrl at 2 μM for 24 h. Then the medium was removed, the cells were carefully washed with PBS (1×) three times, and stained with nuclear binding probe Hoechst 33342 (2 μM) at 37° C. for 30 min. After several rinses with PBS (1×), the medium was replaced and the fluorescence images were acquired with DAPI and […] filters.

For `CCSSCC(NC(=O)C(CC(=O)O)NC(=O)C(NC(=O)C(CCC(=O)O)NC(=O)C(CC(=O)O)NC(C)=O)C(C)C)C(=O)NC(CCCCNC(=O)CN1CCN(CC(=O)[O-])CCN(CC(=O)[O-])CCN(CC(=O)[O-])CC1)C(=O)Nc1ccc2nc(C3=NC(C(=O)NCCCOc4ccc5nc(C#N)ccc5c4)CS3)sc2c1.[Eu+3]` (stereo not drawn) [1-Eu^3+ (16)] (Ac-DEVDC(SEt)K(DOTA)[X1]-X2; configuration not given here), the “fluorescent signal in apoptotic cells” value [1] was “strong fluorescent signal in apoptotic cells”.

For `COc1cccc2c1C(=O)c1c(O)c3c(c(O)c1C2=O)C[C@@](O)(C(=O)CO)C[C@@H]3O[C@H]1C[C@H](N)[C@H](O)[C@H](C)O1` [DOX, doxorubicin], the “increase of caspase-3 level in treated tumors” value [2] was 1.9 fold, the “tumor growth rate relative to saline” value [3] was “significant decrease in tumor growth rates” and the “caspase-3 activity of lysates of treated versus non-treated cells” value [4] was 9.5 fold. For the same compound, the “increase in caspase-3/7 activity in tumor lysates versus saline” value [5] was “approximately 2 fold”.

For `CC[N+]1=C(C=CC=CC=C2N(CCCCCC(=O)NCCCCC(NC(=O)C(CSC)NC(=O)C(CC(=O)O)NC(=O)C(NC(=O)C(CCC(=O)O)NC(=O)C(CC(=O)O)NC(C)=O)C(C)C)C(=O)Nc3ccc4nc(C5=NC(C(=O)NCCCOc6ccc7ncccc7c6)CS5)sc4c3)c3ccc4c(S(=O)(=O)O)cc(S(=O)(=O)O)cc4c3C2(C)C)C(C)(C)c2c1ccc1c(S(=O)(=O)O)cc(S(=O)(=O)[O-])cc21` [L-ctrl], the blood half-life [6] was 30 ± 16.8 min, the “correlation (r) of maximum tumor fluorescence with maximum tumor size change” value ([7]; 3×DOX-treated mice, 1 h after probe) was “no significant correlation” and the “average signal enhancement between DOX- and saline-treated tumors” value ([7]; 4 h after probe administration) was 0.24%. The “tumor fluorescence lower than that of C-SNAF” value ([7]; DOX-treated mice, 1 h) was 18%, the “fluorescent intensity of apoptotic cells incubated with control probes” value [8] was “much lower fluorescent intensity” and the “products observed after incubation with caspase-3” value [9] was “only the caspase-3-mediated DEVD-cleavage hydrolysis product”. The “fluorescence of apoptotic cells compared to C-SNAF” value [10] was “relatively weaker fluorescence”.
